Source: patent publication US5877199A, “Heterocyclic compounds, their preparation and their therapeutic use” (priority 1994, dated 1999)

Molecular target: T1, m1 muscarinic receptors (Homo sapiens, UniProt P11229)
T1 construct: expressed in transfected cells; host or cells: CHO (Chinese Hamster Ovary) cells, membranes
T1 sequence (P11229 1-460): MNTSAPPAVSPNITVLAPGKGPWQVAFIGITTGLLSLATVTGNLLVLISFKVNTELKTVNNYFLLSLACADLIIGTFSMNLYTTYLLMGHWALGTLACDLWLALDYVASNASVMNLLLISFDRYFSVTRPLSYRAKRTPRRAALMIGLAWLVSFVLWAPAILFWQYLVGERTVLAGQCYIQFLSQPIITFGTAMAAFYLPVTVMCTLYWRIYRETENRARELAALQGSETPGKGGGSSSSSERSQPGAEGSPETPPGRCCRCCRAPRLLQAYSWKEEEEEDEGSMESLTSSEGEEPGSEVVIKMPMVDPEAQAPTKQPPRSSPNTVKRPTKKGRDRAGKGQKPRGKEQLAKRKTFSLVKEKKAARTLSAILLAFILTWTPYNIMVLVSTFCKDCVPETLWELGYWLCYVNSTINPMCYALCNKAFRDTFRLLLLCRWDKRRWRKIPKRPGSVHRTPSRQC
Assay: Effect on ACh binding: ACh inhibition of 3H-NMS binding (indirect assay) on CHO cell membranes
Settings: tested at 3 μg/ml; 0.15 nM 3H-NMS, 30 μM ACh, 0.2 mM GTP, pH 7.4, 30° C., two hours
Description: The compounds of the present invention may be assayed for allosteric activity at m1 muscarinic receptors as described below, although the assays we describe are not necessarily exhaustive, and other assays may be employed, as desired, to establish allosterism.
A suitable cell line is CHO (Chinese Hamster Ovary), which are readily engineered to express only one receptor sub-type.
To obtain the large amount of cell membranes required, plates of 530 cm^2 culture area were used. CHO cells which express m1, m2, m3 and m4 receptors were grown separately in MEM alpha medium containing 10% newborn calf serum and antibiotics. When cells reached confluence, they were washed twice with 10 ml of 20 mM HEPES containing 10 mM EDTA (pH 7.4), scraped into the same buffer and homogenized using a Polytron (trademark) homogenizer (setting 5-6 for 5 sec×2). Membrane pellets were obtained by centrifugation (40000×g, 10 min, 4° C.) and resuspended in 20 mM HEPES-0.1 mM EDTA (pH 7.4). Centrifugation and resuspension were repeated twice to wash the cell membranes. After measurement of membrane protein, the membranes (1 or 2 mg protein/ml) were stored at -70° C.
While the direct assay measures ACh (=acetylcholine) binding only to the high affinity state, the indirect assay measures effects only at the low affinity state. This is achieved by including 0.2 mM GTP in the assay. In this assay a fixed concentration of ^3 H-NMS (roughly the Kd value) is incubated in the absence and presence of a fixed concentration of ACh (at about the IC50 value) and the effects of three concentrations of test agent are measured, again in the absence and presence of ACh.
Calculating the effects on ^3 H-NMS binding alone is as follows: binding in the presence of the agent is expressed as a percentage of binding in its absence and, if the effect is inhibitory, an IC50 is estimated graphically. The assay also contains a single high concentration of ^3 H-NMS (4 nM, about 30 times the Kd) which provides an estimate of Bmax (i.e. maximum binding).
Expressing the effect on cold ACh binding will be explained with reference to FIGS. 1a, b and c. These figures show theoretical data and the effects of the transformations described below. In FIGS. 1a and 1b ^3 H-NMS and cold ACh are present at their Kd concentrations; in FIG. 1a the agent has a negative allosteric effect on ^3 H-NMS, while in FIG. 1b it has a positive allosteric effect on ^3 H-NMS. The left panels show the amount of ^3 H-NMS specifically bound in the assay. If the affinity of ACh is reduced by the test agent, as shown in the top panels of FIGS. 1a and 1b, the inhibition by ACh will decrease, but the counts recovered will also depend on the effect of the agent on ^3 H-NMS binding alone. To calculate the effect on ACh binding the inhibitory effect of ACh is first calculated as a percent of its own control in the absence of ACh. Next it is assumed that fractional inhibition is the same as tractional occupancy, and inhibition in the presence of agent is expressed as a percentage of inhibition in the absence of agent. The effects of these transformations are shown in the centre panels. Expressing inhibition by ACh in the presence of agent as a percentage of inhibition in the absence of agent allows the effect of the agent on cold ACh binding to be seen on the same scale as the effect on ^3 H-NMS and ^3 H-ACh binding and is generally preferred.
If the concentration of ^3 H-NMS used in the indirect assay is around the Kd value or less, the transformation described above provides a qualitative and semi-quantitative measure of the agent's effect. If a higher concentration of ^3 H-NMS is used, or if the agent has a positive allosteric effect on ^3 H-NMS, then the results of this transformation may be misleading. […] It is assumed that ACh binds to a single affinity state i.e. that its inhibition curve has a slope of 1, and so an IC50 is calculated from the percentage inhibition of control binding. […]

Compound | Effect on ACh Binding
CSc1c(CC(=O)O)ccc2c3ccccc3n(Cc3ccccc3)c12 [Example 5, (9-Benzyl-1-methylthiocarbazol-2-yl)acetic acid] | 2.62
CSc1c(CC(=O)O)ccc2c3ccccc3n(Cc3ccc(Cl)cc3)c12 [Example 7, [9-(4-Chlorobenzyl)-1-methylthiocarbazol-2-yl]acetic acid] | 3.55
CSc1c(CC(=O)OC(C)(C)C)ccc2c3ccccc3n(Cc3ccc(F)cc3)c12 [Example 8, tert-Butyl [9-(4-fluorobenzyl)-1-methylthiocarbazol-2-yl]acetate] | 3.46
CSc1c(CC(=O)O)cc(C)c2c3ccccc3n(Cc3ccccc3)c12 [Example 14, (9-Benzyl-4-methyl-1-methylthiocarbazol-2-yl)acetic acid] | 3.89
CSc1c(C(Cc2ccccc2)C(=O)O)cc(C)c2c1[nH]c1ccccc12 (stereo not drawn) [Example 15, 2-(4-Methyl-1-methylthiocarbazol-2-yl)-3-phenylpropionic acid] | 2.42
CSc1c(C(Cc2ccccc2)C(=O)O)ccc2c3ccccc3n(Cc3ccccc3)c12 (stereo not drawn) [Example 17, 2-(9-Benzyl-1-methylthiocarbazol-2-yl)-3-phenylpropionic acid] | 2.50
CSc1c(C(Cc2ccc([N+](=O)[O-])cc2)C(=O)O)ccc2c3ccccc3n(Cc3ccc([N+](=O)[O-])cc3)c12 (stereo not drawn) [Example 23, 2-[9-(4-Nitrobenzyl)-1-methylthiocarbazol-2-yl]-3-(4-nitrophenyl)propionic acid] | 2.72
Cc1c(CCC(=O)O)ccc2c3ccccc3n(Cc3ccccc3)c12 [Example 37, 3-(9-Benzyl-1-methylcarbazol-2-yl)propionic acid] | 2.09
CSc1c(OCC(=O)O)ccc2c3ccccc3n(Cc3ccccc3)c12 [Example 46, (9-Benzyl-1-methylthiocarbazol-2-yloxy)acetic acid] | 2.21
O=C(O)CC1CCc2[nH]c3ccccc3c2C1 (stereo not drawn) [Example 61, (1,2,3,4-Tetrahydrocarbazol-3-yl)acetic acid] | 2.11
CSc1c(Cc2nnn[nH]2)ccc2c3ccccc3n(Cc3ccccc3)c12 [Example 77, 5-[(9-Benzyl-1-methylthiocarbazol)-2-ylmethyl]-1H-tetrazole] | 3.69
O=C(O)CC1CCc2c(n(Cc3ccccc3)c3ccccc23)S1 (stereo not drawn) [Example 83, 2-(9-Benzyl-2,3,4,9-tetrahydrothiopyrano[2,3-b]indol-2-yl) acetic acid] | 2.08
c1ccc(Cn2c3c(c4ccccc42)CCC(Cc2nnn[nH]2)S3)cc1 (stereo not drawn) [Example 84, 5-(9-Benzyl-2,3,4,9-tetrahydrothiopyrano[2,3-b]indol-2-yl)methyltetrazole] | 3.30
O=C(O)Cc1cccc2c1ccn2Cc1ccccc1 [Example 91, (1-Benzylindol-4-yl)acetic acid] | 2.76
CSc1c(Cc2nnn[nH]2)cc(C)c2c3ccccc3n(Cc3ccccc3)c12 [Example 97, 5-[(9-Benzyl-4-methyl-1-methylthiocarbazol)-2-yl-methyl]-1H-tetrazole] | 4.97
CCCc1cc(CC(=O)O)c(SC)c2c1c1ccccc1n2Cc1ccccc1 [Example 116, (9-Benzyl-1-methylthio-4-propylcarbazol-2-yl)acetic Acid] | 3.99
CCCOc1c(CC(=O)O)cc(C)c2c3ccccc3n(Cc3ccccc3)c12 [Example 132, (9-Benzyl-4-methyl-1-propoxycarbazol-2-yl)acetic Acid] | 2.68
Cc1cc(CC(=O)O)c(OCc2ccccc2)c2c1c1ccccc1n2Cc1ccccc1 [Example 134, (9-Benzyl-1-benzyloxy-4-methylcarbazol-2-yl)acetic Acid] | 3.40
CSc1c(CC(=O)O)cc(C)c2c3ccccc3n(Cc3cccc(OCc4ccccc4)c3)c12 [Example 136, [9-(3-Benzyloxybenzyl)-4-methyl-1-methylthiocarbazol-2-yl]acetic Acid] | 2.36
CSc1c(CC(=O)O)cc(C)c2c3ccccc3n(Cc3cccc(F)c3)c12 [Example 141, [9-(3-Fluorobenzyl)-4-methyl-1-methylthiocarbazol-2-yl]acetic Acid] | 3.81
CSc1c(CC(=O)O)cc(C)c2c3ccccc3n(Cc3ccc(F)cc3)c12 [Example 143, [9-(4-Fluorobenzyl)-4-methyl-1-methylthiocarbazol-2-yl]acetic Acid] | 5.36
CSc1c(CC(=O)O)cc(C)c2c3ccccc3n(Cc3cccc(Cl)c3)c12 [Example 145, [9-(3-Chlorobenzyl)-4-methyl-1-methylthiocarbazol-2-yl]acetic Acid] | 5.27
CSc1c(CC(=O)O)cc(C)c2c3ccccc3n(Cc3ccc(Cl)c(Cl)c3)c12 [Example 149, [9-(3,4-Dichlorobenzyl)-4-methyl-1-methylthiocarbazol-2-yl]acetic Acid] | 6.49
CSc1c(Cc2nnn[nH]2)cc(C)c2c3ccccc3n(Cc3ccc(Cl)c(Cl)c3)c12 [Example 152, 5-[9-(3,4-Dichlorobenzyl)-4-methyl-1-methylthiocarbazol-2-yl]methyl-1H-tetrazole] | 2.02
O=C(O)Cc1ccc2c3ccccc3n(Cc3cccc(OCc4ccccc4)c3)c2c1 [Example 165, [9-(3-Benzyloxybenzyl)carbazol-2-yl]acetic Acid] | 2.24
CCCc1cc(C(Cc2cccc([N+](=O)[O-])c2)C(=O)O)c(SC)c2c1c1ccccc1n2Cc1cccc([N+](=O)[O-])c1 (stereo not drawn) [Example 172, 2-[1-Methylthio-9-(3-nitrobenzyl)-4-propylcarbazol-2-yl]-3-(3-nitrophenyl)propionic Acid] | 2.59
CCCc1cc(CC(=O)O)c(SC)c2c1c1ccccc1n2Cc1ccc([N+](=O)[O-])cc1 [Example 176, [1-Methylthio-9-(4-nitrobenzyl)-4-propylcarbazol-2-yl]acetic Acid] | 2.08
CSc1c(CC(=O)O)cc(C)c2c3ccccc3n(Cc3ccc(Cl)cc3)c12 [Example 180, [9-(4-Chlorobenzyl)-4-methyl-1-methylthiocarbazol-2-yl]acetic Acid] | 5.02
COc1ccc2c(c1)c1c(C)cc(CC(=O)O)c(SC)c1n2Cc1ccccc1 [Example 182, (9-Benzyl-6-methoxy-4-methyl-1-methylthiocarbazol-2-yl)acetic Acid] | 2.57
CSc1c(CC(=O)O)cc(C(C)C)c2c3ccccc3n(Cc3ccccc3)c12 [Example 190, (9-Benzyl-4-isopropyl-1-methylthiocarbazol-2-yl)acetic Acid] | 4.78
